Here are results for 32 molecules from ChEMBL document CHEMBL2151016, “Synthesis and in vitro antiproliferative activity of new 11-aminoalkylamino-substituted chromeno[2,3-b]indoles” (Eur J Med Chem, 2012).

The subject of assay [1] is MV4-11. The assay can be described thus: Cytotoxicity against human MV4-11 cells after 72 hrs by MTT assay. The settings on record: MV4-11, 72 h. A general note: Formazan colour is commonly taken as a measure of viable cells.
Assay [2] concerns BALB/3T3. The assay can be described thus: Cytotoxicity against mouse BALB/3T3 cells after 72 hrs by SRB assay. The settings on record: BALB/3T3, 72 h. A general note: Sulforhodamine B stains cellular protein and so reports cell mass.
Assay [3] relates to A549. The assay can be described thus: Ratio of IC50 for human A549 cells to IC50 for human HCT116 cells. The class given is functional.
In assay [4] the test system is HCT-116. Description: Cytotoxicity against human HCT116 cells after 72 hrs by SRB assay. As to conditions: HCT-116, 72 h.
Assay [5] relates to A549. The assay can be described thus: Cytotoxicity against human A549 cells after 72 hrs by SRB assay. The settings on record: A549, 72 h.
Assay [6] concerns BALB/3T3. Description: Ratio of IC50 for mouse BALB/3T3 cells to IC50 for human HCT116 cells.
Assay [7] deals with BALB/3T3. Description: Ratio of IC50 for mouse BALB/3T3 cells to IC50 for human A549 cells.
Assay [8] relates to L6. Description: Cytotoxicity against rat L6 cells. The class given is cell-based.

Each structure is given as a SMILES string.

`Clc1ccc2oc3nc4ccccc4c-3c(N3CCOCC3)c2c1`: the IC50 in assay [1] was above 29.5 µM.

On to `O=S(=O)(NCCCNc1c2c3ccccc3nc-2oc2ccc(Br)cc12)c1ccc2ccccc2c1`, for which inhibition in assay [1] was half-maximal at 5.75 µM (IC50).

Regarding `O=S(=O)(NCCCNc1c2c3ccccc3nc-2oc2ccccc12)c1ccc2ccccc2c1`, in assay [1], the IC50 worked out at 2.41 µM.

The molecule `CCN(CC)CCCC(C)Nc1c2c3ccccc3nc-2oc2ccc(Br)cc12` (configuration not stated) returned a half-maximal inhibitory concentration (IC50) in assay [1] of 4.93 µM.

With `COc1ccc2oc3nc4ccccc4c-3c(Nc3ccccc3)c2c1`, in assay [1], half-maximal inhibition (IC50) required 4.35 µM.

In assay [1], `CCN(CC)CCCC(C)Nc1c2c3ccccc3nc-2oc2ccc(OC)cc12` (configuration not stated) returned a half-inhibitory concentration (IC50) of 3.45 µM.

On to `Brc1ccc2oc3nc4ccccc4c-3c(N3CCOCC3)c2c1`, for which, in assay [1], the IC50 turned out to be 25.3 µM.

Turning to `Clc1ccc2oc3nc4ccccc4c-3c(NCCc3c[nH]c4ccccc34)c2c1`, the half-maximal inhibitory concentration (IC50) in assay [1] was 7.57 µM.

For `OCCCNc1c2c3ccccc3nc-2oc2ccccc12`, inhibition in assay [1] was half-maximal at 7.66 µM (IC50).

For `OCCCNc1c2c3ccccc3nc-2oc2ccc(Cl)cc12`, in assay [1], the IC50 was above 30.6 µM.

Regarding `COc1ccc2oc3nc4ccccc4c-3c(NCCCO)c2c1`, 7.26 µM corresponded to half-maximal inhibition in assay [1] (IC50).

Consider `COc1ccc2oc3nc4ccccc4c-3c(N3CCOCC3)c2c1`, for which the IC50 in assay [2] is 8.73 µM; in assay [1], 0.38 µM; in assay [4], 1.7 µM; in assay [5], 10.6 µM. The “Ratio IC50” value in assay [3] and in assay [6] was 5 each time.

Molecule `CCN(CC)CCCC(C)Nc1c2c3ccccc3nc-2oc2ccccc12` (configuration not stated) displayed an IC50 in assay [1] of 6.02 µM.

Molecule `O=S(=O)(NCCCNc1c2c3ccccc3nc-2oc2ccccc12)c1ccccc1` displayed an IC50 in assay [1] above 23.2 µM.

On to `NCCCCNc1c2c3ccccc3nc-2oc2ccc(Cl)cc12`, for which the IC50 in assay [2] came out at 11 µM; in assay [1], 0.76 µM; in assay [4] it was 2.03 µM; in assay [5], 5.56 µM. Also, the results for the “Ratio IC50” value in assay [3] and in assay [7] were 3 and 2, respectively.

In assay [1], `CS(=O)(=O)NCCCNc1c2c3ccccc3nc-2oc2ccccc12` returned an IC50 of 7.74 µM.

Take `NCCCCNc1c2c3ccccc3nc-2oc2ccc(Br)cc12`: the IC50 in assay [2] was determined as 9.55 µM; in assay [1], 0.72 µM; in assay [4] it was 6.74 µM; in assay [5], 7.36 µM.

In the case of `COc1ccc2c(c1)c(NCCCNC(=O)Nc1ccccc1)c1c3ccccc3nc-1n2C`, 2.7 µM corresponded to half-maximal inhibition in assay [8] (IC50).

As for `NCCCNc1c2c3ccccc3nc-2oc2ccccc12`, the IC50 amounted to 13.4 µM in assay [2], 1.02 µM in assay [1], 5.7 µM in assay [4] and 4.26 µM in assay [5]. Besides, in assay [7], the “Ratio IC50” value turned out to be 2.

Consider `CS(=O)(=O)NCCCNc1c2c3ccccc3nc-2oc2ccc(Br)cc12`, for which inhibition in assay [1] was half-maximal at 6.22 µM (IC50).

For the molecule `COc1ccc2oc3nc4ccccc4c-3c(NCCCN)c2c1`, the half-maximal inhibitory concentration (IC50) in assay [2] is 6.87 µM; in assay [1], 0.12 µM; in assay [4] it was 1.93 µM; in assay [5], 9.29 µM. Also, the “Ratio IC50” value in assay [3] and in assay [6] was 5 throughout.

Turning to `COc1ccc2oc3nc4ccccc4c-3c(NCCc3c[nH]c4ccccc34)c2c1`, the 50% inhibitory concentration (IC50) in assay [1] is 3.04 µM.

In turn, `COc1ccc2oc3nc4ccccc4c-3c(NCCCNC(=O)Nc3ccccc3)c2c1` displayed an IC50 in assay [8] of 169 µM.

As to `NCCCCNc1c2c3ccccc3nc-2oc2ccccc12`, the IC50 in assay [2] is 12.1 µM; in assay [1], 0.76 µM; in assay [4] it was 7.2 µM; in assay [5] it was 3.9 µM.

On to `NCCCNc1c2c3ccccc3nc-2oc2ccc(Cl)cc12`, for which the half-inhibitory concentration (IC50) was found to be 10.1 µM in assay [2], 0.86 µM in assay [1], 3.28 µM in assay [4] and 5.59 µM in assay [5]. Moreover, in assay [7], the “Ratio IC50” value is on record as 2.

In assay [1], `c1ccc2c3c(N4CCOCC4)c4ccccc4oc-3nc2c1` showed an IC50 of 9.2 µM.

As for `NCCCNc1c2c3ccccc3nc-2oc2ccc(Br)cc12`, the IC50 in assay [2] was found to be 8.94 µM; in assay [1], 0.97 µM; in assay [4], 4.19 µM; in assay [5] it was 6.19 µM.

Regarding `CCN(CC)CCCC(C)Nc1c2c3ccccc3nc-2oc2ccc(Cl)cc12` (configuration not stated), it took 7 µM to reach half-maximal inhibition in assay [1] (IC50).

In assay [1], `OCCCNc1c2c3ccccc3nc-2oc2ccc(Br)cc12` showed an IC50 above 26.9 µM.

Molecule `O=S(=O)(NCCCNc1c2c3ccccc3nc-2oc2ccc(Br)cc12)c1ccccc1` displayed an IC50 in assay [1] above 19.6 µM.

In assay [1], `C=CCNc1c2c3ccccc3nc-2oc2ccc(Cl)cc12` displayed a concentration for half-maximal inhibition (IC50) above 32.4 µM.

For the molecule `CN1CCCN(c2c3c4ccccc4nc-3oc3ccc(Cl)cc23)CC1`, the IC50 in assay [2] was 16.8 µM; in assay [1] it was 0.63 µM; in assay [4], 9.68 µM; in assay [5], 10.8 µM.

As a reminder, the IC50 is the concentration at which inhibition is half-maximal. Read a low IC50 as greater potency in that assay.
